# Measured values taken from US9061060B2, “Deuterated benzylbenzene derivatives and methods of use” (Theracos Inc., priority 2008, dated 2015).
# Experiments:
# CYP1A2 = target: T1, CYP1A2 (Homo sapiens, UniProt P05177); experiment: P450-Glo CYP screening kit, CYP1A2 inhibition; assay type: in vitro ADME; conditions: luminescence, read-out: IC50 1A2
# T1 construct: purchased Promega
# T1 sequence (P05177 1-516): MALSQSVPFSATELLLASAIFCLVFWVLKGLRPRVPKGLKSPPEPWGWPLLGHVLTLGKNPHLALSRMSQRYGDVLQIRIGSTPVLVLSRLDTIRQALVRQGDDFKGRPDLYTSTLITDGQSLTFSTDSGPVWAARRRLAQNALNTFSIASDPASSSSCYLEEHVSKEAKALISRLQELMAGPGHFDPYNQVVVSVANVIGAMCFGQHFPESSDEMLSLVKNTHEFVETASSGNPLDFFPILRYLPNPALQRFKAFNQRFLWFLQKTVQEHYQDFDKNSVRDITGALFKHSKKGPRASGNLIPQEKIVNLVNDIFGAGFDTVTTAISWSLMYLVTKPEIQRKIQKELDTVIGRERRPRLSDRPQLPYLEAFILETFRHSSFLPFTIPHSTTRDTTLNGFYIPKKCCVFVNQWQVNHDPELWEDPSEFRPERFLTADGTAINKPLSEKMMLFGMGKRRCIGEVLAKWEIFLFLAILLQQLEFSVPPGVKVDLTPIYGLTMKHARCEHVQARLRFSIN
# Source text: (§1) P450-Glo™ CYP Screening Kits for CYP1A2, CYP3A4 and CYP2C19 were purchased from Promega. […] Luminescence was quantified using a Victor 3 spectrophotometer (PerkinElmer).
# CYP3A4 = target: T2, CYP3A4 (Homo sapiens, UniProt P08684); experiment: P450-Glo CYP screening kit, CYP3A4 inhibition; assay type: in vitro ADME; conditions: luminescence, read-out: IC50 3A4
# T2 construct: purchased Promega
# Source text: as §1
# CYP2C19 = target: T3, CYP2C19 (Homo sapiens, UniProt P33261); experiment: P450-Glo CYP screening kit, CYP2C19 inhibition; assay type: in vitro ADME; conditions: luminescence, read-out: IC50 2C19
# T3 construct: purchased Promega
# Source text: as §1
# beagle dogs = experiment: Urinary glucose excretion in beagle dogs; assay type: in vivo; conditions: 0.03 mg/kg oral, glucose 2 g/kg 1 h post dose; for Urinary Glucose Excretion in Dogs, 0-8 h (mean ± SD): 0-8 h (Table 4); for Urinary Glucose Excretion in Dogs, 0-24 h (mean ± SD): 0-24 h (Table 4)
# Procedure: Each test compound was dissolved in 10% PEG400 and administered orally to overnight-fasted beagle dogs by gavage at the dose level of 0.03 mg/kg. Control dogs were given 10% PEG400 only. One hour post dosing, glucose solution (2 g/kg, 5 mL/kg) was administered by oral gavage. Urine was collected within metabolic cages from 0 to 8 hours, and 8 to 24 hours post-dosing for urine volume and glucose measurement. Food was removed 16 hours before dosing and then provided 3 hours after dosing. Water was supplied ad libitum. The concentration of urinary glucose was determined at 8 hours and 24 hours post-dose using a biochemistry analyzer.
# [1] = Pharmacokinetic parameters in SD rats; assay type: in vivo, Sprague-Dawley rats; conditions: single oral 3 mg/kg in 30% PEG400, plasma; for CL/F / AUC(0-t): Sprague-Dawley, rat; for AUC(0-t): read-out: AUC0-t (mean ± SD)
# Procedure: The pharmacokinetic study of each test compound was conducted in 4 Sprague-Dawley rats following a single oral administration of 3 mg/kg of the compound. The dose was prepared by dissolving test article in appropriate volume of 30% PEG400. The plasma samples were collected from the orbital plexus at 0.083, 0.25, 0.50, 1.0, 2.0, 4.0, 6.0, 8.0, 12 and 24 hours post dose, and the plasma concentrations were determined by a developed LC-MS/MS method.
# [2] = Metabolism in SD rats: distribution of metabolites in urine; assay type: in vivo; conditions: male SD rats, 50 mg/kg oral, five consecutive days, HPLC
# Procedure: Each test compound was dissolved in 30% PEG400 and administered orally to male SD rats by gavages at the dose level of 50 mg/kg (when using co-crystals, the weight calculation was based on free drug) for five consecutive days. Control rats were given 30% PEG400 only. All rats were housed in metabolic cages individually. Food and water were supplied ad libitum. Clinical observations (with attention to diarrhea symptoms) were performed twice daily. Food and water consumption were determined daily. Urine was collected pre-determined intervals: pre-dose, 0-4 hours, 4-8 hours, and 8-24 hours post-dose. Metabolites were analyzed and identified by LC/MS. The structures of the metabolites were confirmed by re-synthesis or isolation from the urine by preparative HPLC and NMR analysis. On day 6, all animals were sacrificed and gross necropsy was performed. The urine from two rats for each test compound was collected and pooled. The samples were diluted (1 mL urine in 4 mL of methanol) and analyzed by LC-MS: Waters 2695 Separations Module equipped with a Waters 2996 Photodiode Array Detector and a Waters Micromass ZQ Detector; Waters XTerra C18 3.5 μm, 20 mm×2.1 mm column, 1.0 mL/min, detection at 190-400 nm; 1.7 min gradient 10-50% A, followed by 1.8 min gradient 50-95% A, hold 1 min at 95% A; solvent A: 100% acetonitrile+0.045% formic acid; solvent B: Milli-Q water+0.1% formic acid. The urine samples were analyzed from 0-4 hours, 4-8 hours, 8-24 hours and 0-24 hours after administration. The ratio of metabolites was highly consistent within each time for each rat. The metabolites were identified by mass then re-synthesized to confirm their identity and the relative distribution was assayed using HPLC. […] See also FIGS. 1, 2A-2C, 3A-3D, and 4A-4C.
# T2 sequence (P08684 whole entry): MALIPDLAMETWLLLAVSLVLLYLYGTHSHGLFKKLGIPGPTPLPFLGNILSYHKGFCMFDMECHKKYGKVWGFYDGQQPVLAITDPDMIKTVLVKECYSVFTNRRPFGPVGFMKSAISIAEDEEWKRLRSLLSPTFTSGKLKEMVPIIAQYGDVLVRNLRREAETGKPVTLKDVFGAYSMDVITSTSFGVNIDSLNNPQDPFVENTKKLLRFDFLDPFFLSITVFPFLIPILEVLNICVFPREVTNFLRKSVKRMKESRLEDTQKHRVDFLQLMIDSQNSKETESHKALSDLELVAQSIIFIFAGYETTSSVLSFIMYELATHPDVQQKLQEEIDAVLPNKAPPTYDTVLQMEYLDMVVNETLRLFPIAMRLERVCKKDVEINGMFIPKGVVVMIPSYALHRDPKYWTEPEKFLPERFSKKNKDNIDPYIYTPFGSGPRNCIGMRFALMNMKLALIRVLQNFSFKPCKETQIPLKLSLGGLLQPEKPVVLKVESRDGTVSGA
# T3 sequence (P33261 whole entry): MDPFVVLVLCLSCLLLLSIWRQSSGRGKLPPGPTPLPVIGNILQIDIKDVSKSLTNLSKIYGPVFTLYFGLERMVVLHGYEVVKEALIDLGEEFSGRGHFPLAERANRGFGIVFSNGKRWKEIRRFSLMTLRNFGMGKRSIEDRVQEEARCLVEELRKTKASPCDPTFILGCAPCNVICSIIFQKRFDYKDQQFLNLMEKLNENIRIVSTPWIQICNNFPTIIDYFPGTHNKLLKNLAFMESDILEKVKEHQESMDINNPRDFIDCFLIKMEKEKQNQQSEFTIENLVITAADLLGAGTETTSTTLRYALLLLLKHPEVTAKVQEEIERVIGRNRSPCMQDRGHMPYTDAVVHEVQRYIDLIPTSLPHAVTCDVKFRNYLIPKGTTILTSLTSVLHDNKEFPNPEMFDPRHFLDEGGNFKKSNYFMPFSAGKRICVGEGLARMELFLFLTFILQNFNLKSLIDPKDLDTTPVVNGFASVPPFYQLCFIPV
IC50 (CYP1A2) [µM],IC50 (CYP3A4) [µM],IC50 (CYP2C19) [µM],CL/F [1] [mL/min/kg],AUC(0-t) [1] [ng·h/mL],Cmax (mean ± SD) [1] [ng/mL],t1/2 (mean ± SD) [1] [h],tmax (mean ± SD) [1] [h],"Distribution of Metabolites in Urine (% of total), Peak 1 (Parent) [2] [%]",Structure (SMILES),"Urinary Glucose Excretion in Dogs, 0-8 h (mean ± SD) (beagle dogs) [mg]","Urinary Glucose Excretion in Dogs, 0-24 h (mean ± SD) (beagle dogs) [mg]","Urinary Glucose Excretion in Dogs, 8-24 h (mean ± SD) (beagle dogs; 8-24 h (Table 4)) [mg]"
500 to 1000,500 to 1000,168,2.22,21200 ± 1880,2285 ± 697,6.05 ± 0.85,1.38 ± 0.75,45,"[2H]C([2H])([2H])C([2H])([2H])Oc1ccc(Cc2cc([C@@H]3O[C@H](CO)[C@@H](O)[C@H](O)[C@H]3O)ccc2Cl)cc1 [24c, (2S,3R,4R,5S,6R)-2-(4-chloro-3-(4-(ethoxy-d5)benzyl)phenyl)-6-(hydroxymethyl)tetrahydro-2H-pyran-3,4,5-triol]",3472 ± 622,11964 ± 2190,
426,~400,61.1,4.5,11300 ± 2600,1603 ± 425,4.52 ± 0.98,0.88 ± 0.75,40,"CCOc1ccc(Cc2cc([C@@H]3O[C@H](CO)[C@@H](O)[C@H](O)[C@H]3O)ccc2Cl)cc1 [Ref A, (2S,3R,4R,5S,6R)-2-(4-chloro-3-(4-ethoxybenzyl)phenyl)-6-(hydroxymethyl)tetrahydro-2H-pyran-3,4,5-triol, reference compound]",,,
~500,~1000,50 to 100,3.2,15300 ± 2380,1830 ± 365,5.14 ± 1.28,1.69 ± 0.59,55,"[2H]C([2H])(c1ccc(OCC)cc1)c1cc([C@@H]2O[C@H](CO)[C@@H](O)[C@H](O)[C@H]2O)ccc1Cl [compound 9, (2S,3R,4R,5S,6R)-2-(4-chloro-3-((4-ethoxyphenyl)methyl-d2)phenyl)-6-(hydroxymethyl)tetrahydro-2H-pyran-3,4,5-triol]",3396 ± 442,10228 ± 895,6832 ± 2555
